For data set [1], the system named is MCF7. The experiment in a line: Cytotoxicity against human MCF7 cells assessed as reduction in cell viability at 50 uM incubated for 24 hrs by MTT assay. It is filed as functional, cell-based. Background: Formazan colour is commonly taken as a measure of viable cells.
The subject of data set [2] is MCF7. The experiment in a line: Cytotoxicity against human MCF7 cells assessed as reduction in cell viability at 12 uM incubated for 24 hrs by MTT assay. The format is functional, cell-based.
Data set [3] concerns MCF7. The experiment in a line: Cytotoxicity against human MCF7 cells assessed as reduction in cell viability incubated for 24 hrs by MTT assay. The format is functional, cell-based. As to conditions: MCF7, 24 h.
For data set [4], the system named is MCF7. As to the kind of experiment: Cytotoxicity against human MCF7 cells assessed as reduction in cell viability at 6 uM incubated for 24 hrs by MTT assay. The format is functional, cell-based.
For data set [5], the system named is MCF-10A. As to the kind of experiment: Cytotoxicity against human MCF-10A cells assessed as reduction in cell viability incubated for 24 hrs by MTT assay. The format is toxicity, cell-based.
The test system of data set [6] is MDA-MB-231. As to the kind of experiment: Cytotoxicity against human MDA-MB-231 cells assessed as reduction in cell viability incubated for 24 hrs by MTT assay. The conditions noted are these: MDA-MB-231, 24 h. The format is functional, cell-based.
For data set [7], the system named is MCF7. As to the kind of experiment: Induction of apoptotic cell death in human MCF7 cells incubated for 12 to 24 hrs by AnnexinV/7-AAD staining based flow cytometry. The format is functional. The conditions noted are these: dose 6-12 µM, time 12-24 hrs. On the technique in general: A flow cytometer gives signals particle by particle.
Data set [8] concerns MCF7. The experiment in a line: Induction of apoptotic cell death in human MCF7 cells at 6 to 12 uM by AnnexinV/7-AAD staining based flow cytometry. The format is functional. As to conditions: dose 6-12 µM, time 12-24 hrs, TDE = time-dependent effect.
The subject of data set [9] is MCF7. The experiment in a line: Cytotoxicity against human MCF7 cells assessed as reduction in cell viability incubated for 2 to 24 hrs by MTT assay. As to conditions: dose 6-12 µM, time 2-24 hrs. The format is functional, cell-based.
The test system of data set [10] is MCF7. The experiment in a line: Cytotoxicity against human MCF7 cells assessed as reduction in cell viability at 6 to 12 uM by MTT assay. The format is functional, cell-based. As to conditions: dose 6-12 µM, time 2-24 hrs, TDE = time-dependent effect.
Data set [11] relates to MCF7. As to the kind of experiment: Induction of cell death in human MCF7 cells assessed as proportion of live cells at 6 uM incubated for 12 hrs by AnnexinV/7-AAD staining based flow cytometry. The format is functional.
Data set [12] deals with MCF7. As to the kind of experiment: Induction of cell death in human MCF7 cells assessed as proportion of live cells at 12 uM incubated for 12 hrs by AnnexinV/7-AAD staining based flow cytometry. It is filed as functional.
Data set [13] concerns MCF7. The experiment in a line: Induction of cell death in human MCF7 cells assessed as reduction in number of live cells at 12 uM incubated for 4 hrs by AnnexinV/7-AAD staining based flow cytometry. It is filed as functional.
In data set [14] the test system is MDA-MB-231. The experiment in a line: Induction of apoptotic cell death in human MDA-MB-231 cells assessed as increase in AnnexinV-positive cells at 3 to 12 uM incubated for 2 hrs by AnnexinV/7-AAD staining based flow cytometry. The format is functional. The conditions noted are these: dose 3-12 µM.
The subject of data set [15] is MCF-10A. The experiment in a line: Induction of apoptotic cell death in human MCF-10A cells assessed as increase in AnnexinV-positive cells at 12 uM incubated for 2 hrs by AnnexinV/7-AAD staining based flow cytometry. It is filed as toxicity.
Data set [16] relates to MCF7. The experiment in a line: Induction of apoptotic cell death in human MCF7 cells assessed as increase in AnnexinV-positive cells at 3 uM incubated for 2 hrs by AnnexinV/7-AAD staining based flow cytometry. The format is functional.
Data set [17] has as its system MCF7. As to the kind of experiment: Increase in ROS production in human MCF7 cells assessed as increase in ROS-positive cells at 6 to 12 uM incubated for 2 hrs by DCFDA/7-AAD staining based flow cytometry. The conditions noted are these: dose 6-12 µM. The format is functional, cell-based.
Data set [18] relates to MCF7. The experiment in a line: Increase in ROS production in human MCF7 cells assessed as increase in ROS-positive cells at 6 to 12 uM incubated for 4 hrs by DCFDA/7-AAD staining based flow cytometry. It is filed as functional, cell-based. The conditions noted are these: dose 6-12 µM.
Data set [19] concerns MDA-MB-231. The experiment in a line: Increase in ROS production in human MDA-MB-231 cells assessed as increase in ROS-positive cells at 6 to 12 uM incubated for 2 to 24 hrs by DCFDA/7-AAD staining based flow cytometry. As to conditions: dose 6-12 µM, time 2-24 hrs. It is filed as functional, cell-based.
The test system of data set [20] is MCF7. The experiment in a line: Activation of AMPK in human MCF7 cells assessed as increase in AMPK phosphorylation at Thr172 residue at 12 uM incubated for 2 hrs by western blot analysis. The format is cell-based. As to conditions: filed as activator. (In general: Immunoblotting shows a protein as a band on a membrane.)
The test system of data set [21] is MCF7. As to the kind of experiment: Activation of AMPK in human MCF7 cells assessed as increase in ACC phosphorylation at Ser79 residue at 12 uM incubated for 2 hrs by western blot analysis. The format is cell-based. The conditions noted are these: filed as activator.
For data set [22], the system named is MDA-MB-231. As to the kind of experiment: Activation of AMPK in human MDA-MB-231 cells assessed as increase in AMPK phosphorylation at Thr172 residue at 12 uM incubated for 2 hrs by western blot analysis. It is filed as cell-based. As to conditions: filed as activator.
Data set [23] concerns MDA-MB-231. The experiment in a line: Activation of AMPK in human MDA-MB-231 cells assessed as increase in ACC phosphorylation at Ser79 residue at 12 uM incubated for 2 hrs by western blot analysis. The conditions noted are these: filed as activator. The format is cell-based.
Data set [24] concerns MCF7. The experiment in a line: Activation of AMPK in human MCF7 cells assessed as reduction in mTOR phosphorylation at Ser2448 residue at 6 to 12 uM incubated for 2 hrs by western blot analysis. It is filed as cell-based. As to conditions: filed as activator, dose 6-12 µM.
Data set [25] has as its system MDA-MB-231. The experiment in a line: Activation of AMPK in human MDA-MB-231 cells assessed as reduction in p70S6K phosphorylation at Thr421/Ser424 residue at 6 to 12 uM incubated for 2 hrs by western blot analysis. The conditions noted are these: filed as activator, dose 6-12 µM. The format is cell-based.
In data set [26] the test system is MCF7. As to the kind of experiment: Activation of AMPK in human MCF7 cells assessed as reduction in S6 phosphorylation at Ser235/236 residue at 6 to 12 uM incubated for 2 hrs by western blot analysis. The format is cell-based. As to conditions: filed as activator, dose 6-12 µM.
The test system of data set [27] is MDA-MB-231. The experiment in a line: Activation of AMPK in human MDA-MB-231 cells assessed as reduction in S6 phosphorylation at Ser235/236 residue at 6 to 12 uM incubated for 2 hrs by western blot analysis. The conditions noted are these: filed as activator, dose 6-12 µM. It is filed as cell-based.
The subject of data set [28] is MCF-10A. The experiment in a line: Induction of apoptotic cell death in human MCF-10A cells assessed as increase in AnnexinV-positive cells at 1 uM incubated for 2 hrs by AnnexinV/7-AAD staining based flow cytometry. It is filed as toxicity.
Data set [29] concerns MCF7. The experiment in a line: Induction of apoptotic cell death in human MCF7 cells assessed as increase in AnnexinV-positive cells at 1 uM incubated for 2 hrs by AnnexinV/7-AAD staining based flow cytometry. It is filed as functional.
Data set [30] has as its system MDA-MB-231. The experiment in a line: Induction of apoptotic cell death in human MDA-MB-231 cells assessed as increase in AnnexinV-positive cells at 1 uM incubated for 2 hrs by AnnexinV/7-AAD staining based flow cytometry. The format is functional.

Activity calls are given as the source filed them. The rule behind the calls is not given here.

This note sets out measurements from ChEMBL document CHEMBL5576039, “Novel naphthoquinone-1H-1,2,3-triazole hybrids: Design, synthesis and evaluation as inductors of ROS-mediated apoptosis in the MCF-7 cells” (Bioorg Med Chem, 2024).

For `CC(C)=CCC1=C(OCc2cn(C(C3=C(C)C(=O)c4ccccc4C3=O)c3ccc(F)cc3)nn2)C(=O)c2ccccc2C1=O` (stereo unspecified), the outcome in data set [1] was inactive.

On to `CC(C)=CCC1=C(OCc2cn(C(C)C3=C(C)C(=O)c4ccccc4C3=O)nn2)C(=O)c2ccccc2C1=O` (stereo unspecified), for which the outcome in data set [1] was inactive.

Turning to `CC(C)=CC1=C(OCc2cn(C(C3=C(C)C(=O)c4ccccc4C3=O)c3ccccc3)nn2)C(=O)c2ccccc2C1=O` (stereo unspecified), in data set [2], the outcome was Active.

Regarding `CC(C)(C)c1ccc(-n2cc(CNC3=CC(=O)c4ccccc4C3=O)nn2)cc1`, the IC50 in data set [3] is 21.2 µM.

On to `CC(C)=CC1=C(OCc2cn(CC3=C(C)C(=O)c4ccccc4C3=O)nn2)C(=O)c2ccccc2C1=O`, for which the result in [2], in data set [4], in data set [13], in data set [16], in [17] and in data set [20] was Active. Besides, the outcome in data set [21], in data set [22], in data set [23], in data set [24], in [25] and in data set [26] was Active. Besides, the outcome in data set [27] was Active. Further, the Activity result in data set [5] is “Non-Toxic”; in [7] it was “Dose-Dependent Effect”; in data set [8] it was “Tde”; in [9], “Dose-Dependent Effect”; in data set [10], “Tde”; in [11] it was under 70%. Besides, the Activity in data set [12] is reported as under 90%; in data set [15], “Non-Toxic”. Further, the IC50 stood at 4.4 µM in data set [3] and 11.1 µM in data set [6]. Besides, the result in data set [14], in data set [18] and in data set [19] was inactive.

For the compound `CC(C)=CC1=C(OCc2cn(C(C)C3=C(C)C(=O)c4ccccc4C3=O)nn2)C(=O)c2ccccc2C1=O` (stereo unspecified), the result in data set [2], in data set [4], in [13], in data set [17], in [20] and in data set [21] was Active. Also, the outcome in data set [22], in data set [23], in data set [24], in data set [25], in data set [26] and in [27] was Active. The Activity result in [5] was “Non-Toxic”; in data set [7], “Dose-Dependent Effect”; in [8] it was “Tde”; in data set [9] it was “Dose-Dependent Effect”; in data set [10] it was “Tde”; in data set [11] it was under 75%. Besides, the Activity in data set [12] was under 95%; in data set [15], “Toxic”. For the same compound, the IC50 was 4.3 µM in data set [3] and 9.2 µM in data set [6]. Besides, the outcome in [14] and in data set [19] was inactive.

As to `CC1=C(C(c2ccccc2)n2cc(CNC3=CC(=O)c4ccccc4C3=O)nn2)C(=O)c2ccccc2C1=O` (stereo unspecified), in [1], the result was inactive.

As to `CC(C)=CCC1=C(OCc2cn(CC3=C(C)C(=O)c4ccccc4C3=O)nn2)C(=O)c2ccccc2C1=O`, the outcome in [1] was inactive.

Take `CC(C)=CC1=C(OCc2cn(C(C3=C(C)C(=O)c4ccccc4C3=O)c3ccc(Cl)cc3)nn2)C(=O)c2ccccc2C1=O` (stereo unspecified): in data set [1], the result was inactive.

As for `CC(C)=CC1=C(OCc2cn(C(C3=C(C)C(=O)c4ccccc4C3=O)c3ccc(Br)cc3)nn2)C(=O)c2ccccc2C1=O` (stereo unspecified), the outcome in data set [1] was inactive.

As to `O=C1C=C(NCc2cn(-c3ccc(C(F)(F)F)cc3)nn2)C(=O)c2ccccc21`, the IC50 in data set [3] was 10.4 µM.

As for `CC1=C(Cn2cc(CNC3=CC(=O)c4ccccc4C3=O)nn2)C(=O)c2ccccc2C1=O`, in data set [2], the outcome was Active.

For `CC1=C(C(C)n2cc(CNC3=CC(=O)c4ccccc4C3=O)nn2)C(=O)c2ccccc2C1=O` (stereo unspecified), in data set [1], the outcome was inactive.

Regarding `CC(C)=CCC1=C(OCc2cn(C(C3=C(C)C(=O)c4ccccc4C3=O)c3ccc(Cl)cc3)nn2)C(=O)c2ccccc2C1=O` (stereo unspecified), in data set [1], the outcome was inactive.

Regarding `CC1=C(C(c2ccc(F)cc2)n2cc(CNC3=CC(=O)c4ccccc4C3=O)nn2)C(=O)c2ccccc2C1=O` (stereo unspecified), the result in data set [1] was inactive.

Consider `CC(C)=CCC1=C(OCc2cn(C(C3=C(C)C(=O)c4ccccc4C3=O)c3ccccc3)nn2)C(=O)c2ccccc2C1=O` (stereo unspecified), for which, in data set [2], the outcome was Active.

For the compound `CCc1ccc(-n2cc(CCNC3=C(C)C(=O)c4ccccc4C3=O)nn2)cc1`, in data set [3], the IC50 came out at 8.73 µM.

As to `CC1=C(C(c2ccc(Br)cc2)n2cc(CNC3=CC(=O)c4ccccc4C3=O)nn2)C(=O)c2ccccc2C1=O` (stereo unspecified), the result in data set [1] was inactive.

In the case of `CC1=C(C(c2ccc(Cl)cc2)n2cc(CNC3=CC(=O)c4ccccc4C3=O)nn2)C(=O)c2ccccc2C1=O` (stereo unspecified), the result in data set [1] was inactive.

With `COc1cccc2c1C(=O)c1c(O)c3c(c(O)c1C2=O)C[C@@](O)(C(=O)CO)C[C@@H]3O[C@H]1C[C@H](N)[C@H](O)[C@H](C)O1` [DOXORUBICIN], the Activity entry in data set [28] was “Toxic”. The result in data set [29] was inactive. In addition, in data set [30], the outcome was Active.

In the case of `CC(C)=CCC1=C(OCc2cn(C(C3=C(C)C(=O)c4ccccc4C3=O)c3ccc(Br)cc3)nn2)C(=O)c2ccccc2C1=O` (stereo unspecified), the result in data set [1] was inactive.

What is called IC50 is the point on the concentration scale where inhibition reaches its midpoint.
